Measured values taken from patent publication US4024280A, “Abietanilides, their production and use” (Nippon Shinyaku Co., Ltd., priority 1974, dated 1977).

System: cholesterol concentration in the blood
Experiment: Blood cholesterol reduction in rats fed a cholesterol/sodium cholate diet
Assay type: in vivo
Details: male rats, diet with 1% cholesterol and 0.25% sodium cholate for 3 days, control group = 0, normal group = 100
Description: A completely synthetic diet containing 1% of cholesterol, 0.25% of sodium cholate and 0.003%, 0.01%, 0.03% and 0.1% of the test compound is given to a group of 6 male rats having a body weight of about 50 g consecutively for 3 days, and the rats are fasted overnight. Then, the rats are decapitated and their blood collected to determine the cholesterol concentration in the blood. The concentration of cholesterol in the blood is measured with Technicon Autoanalyzer (Technicon Laboratory: Method File N-24a).
Each value shown in the Table is a relative value determined based on the supposition that the value of the control group (the cholesterol-administered group) is 0 and the value of the normal group (the non-cholesterol-administered group) is 100.

CC(C)C1CCC2=C(CCC3C(C)(C(=O)Nc4ccccc4)CCCC23C)C1 (stereo not shown) [Δ^8 -Dihydroabietanilide]
% Inhibition (dose in diet 0.003%): 18% | % Inhibition (dose in diet 0.01%): 22% | % Inhibition (dose in diet 0.03%, * significant at 1% level): 56% | % Inhibition (dose in diet 0.1%, * significant at 1% level): 93%
